The results in this text go back to a melting point compilation (Tetko et al.; mined from patent text by program, amines drawn as free bases though some values may be those of a salt).

Broadly, the melting point is the temperature, or range, at which the solid turns liquid. In the case of `CCCCCCCCCCC(=O)Nc1ccn(C2OC(CO)C(O)C2O)c(=O)n1` (centres undefined), the melting point was in the range of 146 to 150 °C. On to `NC(=NCC(F)(F)F)Nc1cncc(Cl)n1`, for which the melting point was in the range of 139 to 140 °C. For `COc1ccc2c(c1)C1=C(SCC3(CCN(CC(O)COc4ccc(Cl)cc4)CC3)O1)C(=O)C2=O` (centres undefined), the melting point lay in the range of 109 to 110 °C. With `Nc1ccc(Cl)nc1I` the figure was 148 °C. In turn, `O=C(O)c1cccc(-c2ccc3c(c2)N(c2ccc(Cl)cc2Cl)CCO3)c1` displayed a melting point of 222 to 223 °C. The compound `N#Cc1cc(O)cc2nc(-c3ccc(O)c(F)c3)oc12` had a melting point of 308 to 310 °C. On to `CCCN1CCCC2c3nc(N)sc3CCC21` (centres undefined), for which the melting point is 163 to 181 °C. The compound `CCc1noc(=O)n1C(=O)NC` showed a melting point of 82 °C.

On to `CCCN(CCN1CCN(C(=O)c2n[nH]c3ccccc23)CC1)C1CCc2c(O)cccc2C1` (centres undefined), for which the melting point lay within 167 to 170 °C. Turning to `C/C(=C(\C#N)C(N)=S)N1CCCCC1`, the melting point fell in the range of 161 to 166 °C. On to `O=C(Oc1cc(F)ccc1Br)c1cc2ccccc2oc1=O`, for which the melting point lay within 173 to 175 °C. Compound `Cc1ccc(S(=O)(=O)OCC2COc3ccc([N+](=O)[O-])c(C=CC#N)c3O2)cc1` (centres undefined) displayed a melting point of 117 to 118 °C. On to `COC(=O)C(C)Oc1cccc(C=O)c1` (centres undefined), for which the melting point amounted to 50.7 °C. `O=[N+]([O-])c1ccc(CSSCc2ccc([N+](=O)[O-])cc2)cc1` came in with a melting point of 126 °C. Consider `CC(C)N(C(=O)n1oc(=O)n(C)c1=O)c1ccc(F)cc1`, for which the melting point fell in the range of 135 to 136 °C. The same measure for `O=c1nc(N(CCO)c2ccccc2)sc2ncccc12`: 168 to 169 °C. With `COc1ccc(-c2ccc3c(C(=O)O)cccc3c2)cc1C12CC3CC(CC(C3)C1)C2` the figure was 222 °C. Consider `Cc1ccc(F)cc1C=S`, for which the melting point fell in the range of 45 to 47 °C. With `N[C@@H](Cc1cccc(C(F)(F)F)c1)[C@H](O)c1ccc(F)cc1` (racemic) the figure was 76 to 77 °C; with `CC1c2ccccc2Nc2nccn21` (centres undefined), 171 to 172 °C.

In turn, `Cc1oc2c(OC(C)C(N)=O)cccc2c1C` (centres undefined) came in with a melting point of 116 to 119 °C. The same measure for `CN(C)C(=O)Cn1c(-c2ccc(Cl)cc2)nc2cccnc21`: 212 to 213 °C; for `COc1ccc(CN(C)CCCCc2ccc(NC(=O)c3cccc4c(=O)c5ccccc5n(C)c34)cc2)cc1OC`: 142 °C. With `Cc1cc(=O)n2c3c(cc(C(O)(C(F)(F)F)C(F)(F)Cl)cc13)CC2` (centres undefined), the melting point was 160 to 164 °C. In turn, `CCOP(=O)(Cc1nnc2c(=O)[nH]c3c4ccccc4ccc3n12)OCC` registered a melting point of 195 to 197 °C. The same measure for `CCOC(=O)c1cnn(-c2cc(C)cc(C)c2)c1N`: 113 to 114 °C. For the compound `CC(C)c1ccc2cc(O)ccc2c1`, the melting point was 109 to 110 °C. With `Cc1ncc2c(c1OCC(=O)O)COC2c1ccccc1` (centres undefined) the figure was 220 °C; with `CC(C)(C)Oc1cccc(C[C@@H](C(=O)O)[C@@H](O)c2ccc(F)cc2)c1` (racemic), 131 to 132 °C. The compound `Cc1cc(Cl)ccc1N=CN(C)SN(C)C=Nc1ccc(Cl)cc1C` displayed a melting point of 124 to 126 °C. `O=C(Cl)c1cc([N+](=O)[O-])cc2c1OCCO2` came in with a melting point of 108 °C. The same measure for `CS(=O)(=O)c1ccc(C2=C(c3ccc(F)cc3)CC3(CCCC3)C2)cc1`: 142 to 143 °C. Compound `CC(C)OCCNC(=O)c1n[nH]cc1NC(=O)c1ccccc1` displayed a melting point of 121 to 122 °C. Compound `COc1ccc2cnoc2c1Cl` returned a melting point of 115 to 118 °C. `CC(C)(F)c1cnn2c(-c3ccc(F)c(-c4c(F)cccc4C#N)c3)cnc2n1`: the melting point is 187 to 188 °C.

For the compound `CC(=O)OCC1OC(OS(C)(=O)=S)C(OC(C)=O)C(OC(C)=O)C1OC(C)=O` (centres undefined), the melting point lay within 118 to 119 °C.

As for `CCCc1ccc(-n2ncc(C#N)c2NC(C)=O)c(Cl)c1`, the melting point fell in the range of 143 to 144 °C.

`CCc1nc2c(N)nc3cc(OCC(=O)N4CCOCC4)ccc3c2n1CCOc1ccccc1` gave a melting point of 208 to 209 °C. `Cc1cc(-c2nc3cccnn3c2-c2ccnc(NC(=O)c3ccc(OC(F)(F)F)cc3)c2)ccc1F`: the melting point fell in the range of 225 to 226 °C. The compound `CCOP(=O)(/C=C/c1cn(-c2ccccc2)nc1OCc1ccc(OCc2nc(-c3ccco3)oc2C)c(C(=O)O)c1)OCC` gave a melting point of 169 to 170 °C. The compound `COc1ccc2c(c1)C(=O)C(=Cc1cccc([N+](=O)[O-])c1)CC2` had a melting point of 175 to 176 °C. The same measure for `COC(=O)c1ccc(CN(OC)C(=O)C=C(O)C(=O)O)cc1`: 123 to 125 °C; for `O=C1OC(c2ccccc2)CCN1Cc1ccccc1NS(=O)(=O)C(F)(F)F` (centres undefined): 152 °C; for `O=c1[nH]c2cc(O)ccc2n1CCN1CCN(c2cccc(C(F)(F)F)c2)CC1`: 275 °C.

On to `CCOC(=O)c1snnc1SC`, for which the melting point was 64.5 to 65.5 °C. Turning to `OC(CCn1cccn1)c1ccc(OCc2ccccc2)cc1` (centres undefined), the melting point fell in the range of 80 to 85 °C.

For the compound `O=C1C=C(Oc2ccc(C(F)(F)F)cc2)C(O)O1` (centres undefined), the melting point was 87 to 89 °C. The compound `COC(=O)C1=C(C)Nc2ccnn2C1c1ccccc1C(F)(F)F` (centres undefined) yielded a melting point of 209 to 210 °C. With `COc1cccc([N+](=O)[O-])c1NC(=O)OCc1ccccc1` the figure was 78 to 80 °C; with `COC(=O)[C@@H]1CCCCOc2ccc(cc2)C[C@H](NC(=O)OC(C)(C)C)C(=O)N[C@@H](C(C)C)C(=O)N1`, 225 to 228 °C. The compound `O=S(=O)(Nc1ccc(C(F)(F)F)cc1I)c1ccccc1` had a melting point of 84 to 86 °C. In turn, `CC(C)(C)c1cc2c(c(C(C)(C)C)c1)OC(=O)C2c1ccc(OCC(=O)O)cc1` (centres undefined) returned a melting point of 158 to 162 °C.

Turning to `CCCNC(=O)Nc1ccc(C(=O)c2c(C)c(OCCOC)c3ccccn23)cc1C(=O)OC`, the melting point is 125 °C. Turning to `N#Cc1ccc(CCc2cc(Cl)ccc2OCc2ccccc2)cc1`, the melting point lay within 77 to 79 °C. With `O=C(O)c1cn(C2CC2)c2cc(Cl)ccc2c1=O` the figure was 307 to 308 °C; with `CC(C)c1cccc(C(C)C)c1NC(=O)CNC(c1ccccc1)c1cccc(CO)c1` (centres undefined), 57 to 62 °C. The same measure for `CN(C)c1ccc(CC(OCC(O)CN2CCCCC2)C(=O)c2ccccc2)cc1` (centres undefined): 113 to 115 °C; for `CC(C)Cc1nn(C)c(=O)c2cc(Cc3cccc4ccccc34)oc12`: 73 to 75 °C; for `Cc1sc2nc(C=O)c(C)c(=O)n2c1C`: 170 to 173 °C.

Regarding `COc1cnc2[nH]cc(/C=C3\N=C(NCC4CC4)NC3=O)c2c1`, the melting point lay within 280 to 286 °C.

For the compound `Cc1c(-c2ccncc2)[nH]c2c1C(=O)CC(C)(C)C2`, the melting point fell in the range of 241 to 242 °C. Compound `O=C(SCC(=O)N1c2ccccc2CCC1C(=O)O)c1ccccc1` (centres undefined) had a melting point of 164 to 168 °C. The compound `c1ccc(OCCSCc2nnc(-c3ccc(OCCCN4CCCCCC4)cc3)o2)cc1` registered a melting point of 50 °C. As for `CCOC(=O)c1c(C(F)(F)F)nsc1SC`, the melting point is 64 to 65 °C. As to `O=C1NCCc2c(-c3cccc(CCO)c3)[nH]c3cccc1c23`, the melting point worked out at 188 °C.

The compound `CCOC(=O)COc1ccc(Cn2c(-c3ccc(C(F)(F)F)cc3)c(C)c3cc(OCc4ccccc4)ccc32)cc1` came in with a melting point of 221 °C. Compound `CCc1cc(N(C)Cc2ccc3oc(-c4ccccc4C#N)c(Br)c3c2)n2nccc2n1` displayed a melting point of 130 to 136 °C. In the case of `O=c1ccc(-c2c(-c3ccccc3)nn3ccncc23)c[nH]1`, the melting point is above 250 °C. Take `COC(=O)CCc1cc2cc(Cl)ccc2n1S(=O)(=O)c1ccc(NC(C)=O)cc1`: the melting point was 154 to 157 °C. As for `CC(O)CNC1(F)C=CC(N)=C([N+](=O)[O-])C1` (centres undefined), the melting point was found to be 97 °C.

In the case of `Nc1ccn([C@@]2(O)CC=C(P(=O)(O)O)O[C@@H]2CO)c(=O)n1`, the melting point is 290 °C. With `C=C(C(=O)OC)C(=O)c1ccc(OC)cc1` the figure was 75 to 76 °C. `O=S(=O)(O)c1ncnn1CC(O)(Cc1ccccc1Cl)C1(Cl)CC1` (centres undefined) registered a melting point of 68 to 70 °C. In turn, `COc1ccc(OCc2cn(C34CC5CC(CC(C5)C3)C4)nn2)cc1OC` displayed a melting point of 108 to 112 °C. `Cc1noc(NS(=O)(=O)c2ccccc2-c2ccc(-c3ncoc3C)cc2)c1C`: the melting point fell in the range of 86 to 96 °C. `CS(=O)(=O)c1ccc(-n2nc(C(F)(F)F)cc2-c2ccc(Br)cc2)cc1F`: the melting point fell in the range of 64 to 65 °C.

In the case of `O=C(c1ccccc1)N1CCc2cc(S(=O)(=O)N3CC(c4ccccc4)NC3=O)ccc21` (centres undefined), the melting point came to 127 °C. `Cc1cc(-c2cc(C(F)(F)F)nn2-c2ccc(S(N)(=O)=O)cc2)ccc1-c1cocn1` showed a melting point of 112 to 114 °C. With `CS(=O)(=O)c1ccc(-n2cc(C(F)F)nc2-c2ccc(Cl)cc2)cc1`, the melting point was in the range of 179 to 180 °C. As for `CCc1cccc2c1[nH]c1c2ccc2c(C=O)c[nH]c21`, the melting point is above 250 °C. Turning to `Cc1cc(C)c(-c2cc3cnc(N)nc3nc2NC(=O)NC(C)(C)C)c(C)c1`, the melting point fell in the range of 281 to 297 °C. With `CC(O)CNc1c([N+](=O)[O-])cnc2ccccc12` (centres undefined) the figure was 209 to 210 °C; with `Cc1c(S(=O)(=O)Nc2ccc(-c3nc(C(=O)O)co3)cc2S(C)(=O)=O)sc2ccc(F)cc12`, 289 to 291 °C.

Compound `CCCCOc1ccc(NC(=O)c2cnc(C(=O)OC)c(Cl)c2)cc1` gave a melting point of 121 to 123 °C.

As to `CC12CCC3C(CCC4C(=O)CCCC43C)C1CCC2O` (centres undefined), the melting point lay in the range of 123 to 126 °C. `Cc1c(Cl)ccc2c1[nH]c1c(CO)cccc12` registered a melting point of 187 °C. The compound `Nc1nc(O)c2c(n1)NCC(CCc1ccc(C(=O)N[C@@H](CCC(=O)O)C(=O)O)c(F)c1)C2` (some centres undefined) came in with a melting point of 199 to 209 °C.

As to `CCc1oc2ccccc2c1C(=O)NCc1ccc2c(Br)c(OCC#N)ccc2c1`, the melting point was 181 to 183 °C. The compound `COc1cccc(-n2c(-c3sc(Nc4ccccc4)nc3C)nc3ccccc3c2=O)c1` registered a melting point above 275 °C.
